Series [1] is described as follows: Pharmacokinetic experiments in ICR mice (plasma). The format is in vivo. The settings on record: for AUC(0-t): read-out: AUC0-12. The procedure: Multiple compounds in the Examples of the present disclosure were administered to ICR mice to conduct pharmacokinetic experiments. A single intravenous injection (with a dose of 2 mg/kg) and a single oral administration (with a dose of 10 mg/kg) were administered respectively. Blood was respectively collected prior to administration and 5 minutes, 15 minutes, 30 minutes, 1 hour, 2 hours, 4 hours, 8 hours, 12 hours and 24 hours after administration, and the concentration of the test compound in plasma was determined. Plasma pharmacokinetic data of the control compound (obtained from Example 28 in patent WO2018130152 A1) and the compounds of Examples 10 and 19 in the present disclosure in mice were as shown in the following Table 5 to Table 7.

Another series deals with HBV DNA. Nature of the series: Determination of HBV DNA in HepG2.2.15 cell supernatant by qPCR. The settings on record: Hepatitis B virus, 168 h, HepG2.2.15 cells, supernatant after a total of 7 days of drug action, read-out: Inhibitory activity against HBV DNA IC50. In kind it is cell-based, hepatitis B virus (HepG2.2.15 cells). Here is the method: (§1) The full genome of HBV was inserted into an […] cell, which could therefore express HBV continuously (Sells et al, Proc Natl Acad Sci USA. 1987 February; 84 (4):1005-9). The culture condition was DMEM medium containing 10% serum and […] G418. Cells were placed in an incubator containing 5% CO2 and cultured at 37° C.
HepG2.2.15 cells were seeded into a 96-well culture plate at a density of 4×10^4 cells/well. After 4 hours, the drug dissolved in DMSO was subjected to a 4-fold dilution and then added to cells. 0.5% DMSO was added separately as control. On the 4th day of drug action, the original supernatant was removed and then the drug was added thereto again. The supernatant was collected after a total of 7 days of drug action and treated with lysis buffer. The determination of hepatitis B DNA was carried out by real-time fluorescence-based quantitative polymerase chain reaction (qPCR). After the completion of the qPCR, data were exported from the instrument and analyzed, and IC50 indicating antiviral activity was calculated after fitting the dose-response curve.

Series [2] relates to hepatitis B surface antigen (HBsAg). Briefly: Determination of hepatitis B surface antigen (HBsAg) in HepG2.2.15 cell supernatant. The format is cell-based, hepatitis B virus (HepG2.2.15 cells). Conditions: Hepatitis B virus, HepG2.2.15, 96 h, read-out: HBsAg inhibitory activity IC50. The procedure:
as §1
HepG2.2.15 cells were seeded into a 96-well culture plate at a density of 3×10^4 cells/well. On the next day, the drug dissolved in DMSO was subjected to a 5-fold dilution and then added to the cells. 0.5% DMSO was added separately as control. The supernatant was collected after 4 days of drug action, and the content of hepatitis B surface antigen was determined.
The determination of hepatitis B surface antigen was carried out by using a kit for quantitative determination of hepatitis B virus surface antigen (chemiluminescence method). The specific operations were as follows. 50 μL cell culture supernatant was taken and transferred to the assay plate. 50 μL of enzyme-linked reagent was added thereto and the assay plate was sealed. Incubation was carried out at room temperature for 1 hour. Afterwards, the assay plate was washed six times with PBS, and finally, the residual liquid was removed by shaking the plate. 25 μL of substrates A and B were added respectively, and the determination was conducted by using a microplate reader (Tecan Infinite® F200) after ten minutes of reaction. IC50 was calculated after fitting the dose-response curve.

The mark [3] stands for this setting: mouse, single intravenous injection 2 mg/kg, plasma.
Setting [4] is: mouse, single oral administration 10 mg/kg, plasma.

Like-named read-outs stand apart in the source and are kept apart here.

Usually bioavailability stands for dose-corrected exposure relative to a reference, in per cent. Broadly, the AUC(0-inf) is total exposure, with the tail of the curve extrapolated. By Cmax is commonly meant the peak of the concentration-time curve. In general, Tmax refers to the time at which the peak concentration occurs. As usually defined, the clearance is a measure of how efficiently the substance is removed, as volume per time. Low values mean inefficient removal, high ones efficient removal. By half-life is commonly meant the time in which the quantity being followed falls by half. Usually IC50 stands for the concentration at which inhibition is half-maximal. In the case of `COCc1ncc(-c2cc3c(cc2OC)-c2cc(=O)c(C(=O)O)cn2C(C(C)(C)C)C3)s1` (stereo not shown) [Example 10, 6-tert-butyl-10-methoxy-9-[2-(methoxymethyl)thiazol-5-yl]-2-oxo-6,7-dihydro-2H-pyrido[2,1-a]isoquinoline-3-carboxylic Acid], the bioavailability in series [1] (mouse, plasma, oral 10 mg/kg vs intravenous 2 mg/kg, read-out: F (bioavailability)) stood at 33.9%. In series [1] (setting [3]), the area under the curve AUC(0-inf) is 0.804 µg·h/mL, the peak concentration (Cmax) was 0.423 µg/mL, the time to peak (Tmax) turned out to be 0.08 h and the clearance was 2.49 L/h/kg. Moreover, in series [1] (setting [3]), the half-life was 1.9 h and the AUC(0-t) was 0.796 µg·h/mL. In series [1] (mouse, single intravenous injection 2 mg/kg, plasma, read-out: Vss), the Vd stood at 5.42 L/kg. In addition, in series [1] (setting [4]), the AUC(0-inf) was found to be 1.4 µg·h/mL, the highest concentration (Cmax) amounted to 0.458 µg/mL, the time to peak (Tmax) worked out at 0.5 h and the half-life was 2.6 h. Also, the AUC(0-t) in series [1] (setting [4]) stood at 1.35 µg·h/mL. In series [1] (same dose, after intravenous injection and oral administration), the “plasma exposure compared with the control compound” value is on record as “significantly higher”. Also, the IC50 in the series on HBV DNA was 0.13 nM. In addition, the concentration for half-maximal inhibition (IC50) in series [2] was 0.2 nM.
For `CCOc1ncc(-c2cc3c(cc2OC)-c2cc(=O)c(C(=O)O)cn2C(C(C)(C)C)C3)s1` (stereo not shown) [Example 13, 6-tert-butyl-9-[2-(ethoxy)thiazol-5-yl]-10-methoxy-2-oxo-6,7-dihydro-2H-pyrido[2,1-a]isoquinoline-3-carboxylic Acid], the figures for the IC50 (with HBV DNA; in series [2]) were 0.31 nM and 0.2 nM, respectively.
For `COc1cc2c(cc1-c1cnc(C(C)O)s1)CC(C(C)(C)C)n1cc(C(=O)O)c(=O)cc1-2` (stereo not shown) [Example 16, 6-tert-butyl-9-[2-(1-hydroxyethyl)thiazol-5-yl]-10-methoxy-2-oxo-6,7-dihydro-2H-pyrido[2,1-a]isoquinoline-3-carboxylic Acid], in that order: 0.41 nM and 0.1 nM.
In the case of `COc1cc2c(cc1-c1cnc(N3CC(F)(F)C3)s1)CC(C(C)(C)C)n1cc(C(=O)O)c(=O)cc1-2` (stereo not shown) [Example 4, 6-tert-butyl-9-[2-(3,3-difluoroazetidin-1-yl)thiazol-5-yl]-10-methoxy-2-oxo-6,7-dihydro-2H-pyrido[2,1-a]isoquinoline-3-carboxylic Acid], the IC50 came out at 0.26 nM in the series with HBV DNA and 0.045 nM in series [2].
For `COc1cc2c(cc1-c1cnc(N3CC(OC)C3)s1)CC(C(C)(C)C)n1cc(C(=O)O)c(=O)cc1-2` (stereo not shown) [Example 9, 6-tert-butyl-10-methoxy-9-[2-(3-methoxyazetidin-1-yl)thiazol-5-yl]-2-oxo-6,7-dihydro-2H-pyrido[2,1-a]isoquinoline-3-carboxylic Acid], in that order: 0.1 nM and 0.03 nM.
For `COc1cc2c(cc1-c1cnc(COC3CC3)s1)CC(C(C)(C)C)n1cc(C(=O)O)c(=O)cc1-2` (stereo not shown) [Example 24, 6-tert-butyl-9-[2-(cyclopropoxymethyl)thiazol-5-yl]-10-methoxy-2-oxo-6,7-dihydro-2H-pyrido[2,1-a] isoquinoline-3-carboxylic Acid], the IC50 was determined as 0.45 nM with HBV DNA and 0.2 nM in series [2].
Consider `CCCc1ncc(-c2cc3c(cc2OC)-c2cc(=O)c(C(=O)O)cn2C(C(C)(C)C)C3)s1` (stereo not shown) [Example 18, 6-tert-butyl-10-methoxy-2-oxo-9-(2-propylthiazol-5-yl)-6,7-dihydro-2H-pyrido[2,1-a]isoquinoline-3-carboxylic Acid], for which the concentration for half-maximal inhibition (IC50) amounted to 0.06 nM in the series with HBV DNA and 0.09 nM in series [2].

For the origin of these results see patent US20220081434A1, “DIHYDROISOQUINOLINE COMPOUND” (SUZHOU ARK BIOPHARMACEUTICAL CO., LTD., priority 2019, published 2022).
